{Cy3} = cyanine 3 fluorescent label; {Chol} = cholesterol
Key:
[1] = system: MRC5 cell line; assay: Flow cytometry analysis of cellular uptake in the MRC5 cell line (Cy3); format: cell-based, human
Method: Cellular uptake of the Dbait conjugated to cholesterol, in particular CoDbait, in comparison with the Dbait was measured by the inventors by flow cytometry analysis.
Flow cytometry analysis of cellular uptake in the MRC5 cell line performed at 5 hours after the beginning of treatment of various transfection conditions was as described in the table.

[2] = system: SV40 transformed fibroblasts MRC-5; assay: Flow cytometry cellular uptake of formulated Dbait-cy3 (Table 1); format: cell-based, human
Method: (§1) The inventors monitored the cellular uptake of the different complexes using a fluorescent cy3-modified Dbait. The initial fluorescence of the cy3-Dbait complex was monitored immediately before transfection. […] Cellular content of human transfected fibroblast cells was measured by flow cytometry analysis.
The Dbait molecules were made by automated solid-phase oligonucleotide synthesis. […] […] (SEQ ID NO: 4) where H is a hexaethyleneglycol linker. Studies on cells in culture were performed using SV40 transformed fibroblasts MRC-5. Cells were grown at 37° C. in monolayer cultures in complete DMEM (Gibco, Cergy-Pontoise, France) with 10% FCS and antibiotics (100 μg/mL streptomycin and 100 μg/mL penicillin) under conditions of 100% humidity, 95% air and 5% CO2. Unless otherwise specified, transfections were performed in 1.2 mL MEM medium without serum in 60 mm diameter plates. Transfection with jetPEI (Polyplus-transfection, Illkirch, France) was performed at an N/P ratio of 6 according to the manufacturer's instructions. Briefly, Dbait was diluted in 150 mM NaCl and gently mixed with an equal volume of PEI in 150 mM NaCl and added to DMEM medium without serum. coDbait was directly added to DMEM medium without serum. Transfection of Dbait molecules was performed with SuperFect reagent in 1.2 mL DMEM medium with serum (in 60 mm diameter plates) for 5 hours and then cells were left to recover for 1 hour if not indicated otherwise. For electroporation, 1.2×10^6 cells were transfected with 2 μg Dbait using the Gene Pulser II (Bio-Rad, Marnes-la-Coquette, France). At the end of the 5h transfection (time zero), medium was replaced by complete medium and cells were grown for the indicated time before being analyzed.
(§2) Cells were transfected with different complexes with Dbait-cy3 for 5 h and allowed to grow 5 hours or 24 hours, then rapidly washed with PBS. Cells were directly analyzed by flow cytometry. For immunofluorescence detection by flow cytometry, the cells were fixed in 2% paraformaldehyde for 10 min prior to immunodetection. […] Cells were washed with PBS and resuspended in PBS with 50 μg/mL propidium iodide, 25U/ml RNaseA. Cells were analyzed by a FACSCalibur flow cytometer (BD Biosciences, Franklin Lakes, N.J., USA) and data was analyzed using BD CellQuest Pro (BD Biosciences) and the free WinMDI 2.8 (Scripps Research Institute, La Jolla, Calif., USA) software.

[3] = system: zebrafish embryos; assay: Injection into 1K-stage zebrafish embryos: distribution and 24 h phenotype toxicity; settings: same concentration of Dbait, by adjuvant
Method: More than 100 embryos were analyzed for each condition.
The observation of phenotypic effects 20 hours after injection allowed assessment of Dbait activity and treatment overall toxicity. […] The 24-hour phenotypes were categorized as described (FIG. 3), allowing quantification of the injected mixture's toxicity.
Zebrafish eggs were obtained from natural spawning of wild type or transgenic (flactin:egfp-ras) fish lines. […] Glass capillaries (Harvard Apparatus GC100-10) were pulled with a KopF vertical pipette puller (KopF 720) to make injection needles. 2 to 5 nl of Dbait solution were injected at the animal pole of embryos in cell cycle 10 and immediately processed for confocal laser scanning microscopy imaging (upright Leica SP2) with 40×/0.8 NA water dipping lens objective. Imaging was performed by simultaneous 480 nm (eGFP) and 561 nm (cy3) excitation. […] One-day-old larvae were observed under the dissecting stop and phenotypes categorized as described in FIG. 3. […] Dbait (coDbait)-cy3 50 μM was injected either alone or in combination with PEI25K (ratio N/P=9), PEI11K (ratio N/P-6), or SuperFect (10 μl/1 μg Dbait).

[4] = Fluorescence of formulated cy3-Dbait before transfection; settings: fluorescence at FL2 value of the cy3-Dbait formulation
Method: as §1
as §2, with “Cells” for “Cells were transfected with different complexes with Dbait-cy3 for 5 h and allowed to grow 5 hours or 24 hours, then rapidly washed with PBS. Cells”

[5] = system: SK28 xenografted human melanoma; assay: SK28 xenograft survival and tumor growth delay after irradiation with formulated Dbait (Table 2); settings: IT; for Mean TGD: tumor growth delay
Method: The antitumoral effect of formulated Dbait was tested in combination with radiotherapy on SK28 xenografted human melanoma. Dbait/vector complexes were administered 5 hours before each irradiation using intratumoral injections.
SK28 or U87G xenograft tumors were obtained by injecting 10^6 tumor cells into the flanks of adult female nude mice (Charles River strain; L'Arbresle, France). […] After approximately 12 days, when the subcutaneous tumors measured 150-200 mm^3, the mice were separated into homogeneous groups of at most 12 each to receive different treatments. […] Doses were controlled by thermoluminescence dosimetry. A total dose of 30 Gy was delivered in 6 sessions at intervals of three sessions of 5 Gy per week during two weeks. Dbait molecules were prepared in 100 μL of 10% sucrose as previously described for in vitro studies except that PEI mixtures were performed without NaCl (Polyplus-transfection, Strasbourg, France). The Dbait mixtures were incubated for 15 min at room temperature before injection. CoDbait was diluted in 10% sucrose at the required concentration. Intratumoral injections of the indicated amount of Dbait were performed 5 h before each radiotherapy session. Mock treated animals were injected with 100 μL of 10% glucose according to the protocol of the associated assays. Tumor size was assessed by caliper measurements every three days and size was calculated by the formula (2× length×width^2). Mice were weighed and pictures of tumors were taken every week. For ethical reasons, the animals were sacrificed when their tumors reached 2,000 mm^3. The end point used in survival analysis was death day.
Descriptive analyses of the tumor response were performed for each treatment and each tumor type. Day 1 was the day of the first treatment session. All animals were followed for at least 150 days. Median lifetime was estimated according to the Kaplan-Meier method. Tumor growth delay (TGD) was calculated by subtracting the mean tumor volume quadrupling time of the control group from tumor volume quadrupling times of individual mice in each treated group. The mean TGD was calculated for each treated group using the individual measurements. […] A global LogRank was first performed for each group with the same tumor type. Then treatments with Dbait were compared to the mock-treated controls. All tests were considered significant at the 0.05 significance level.

[6] = system: SK28 melanoma xenograft; settings: coDbait 0.6 mg IT alone (group 4) or CQ 1 mg i.p. alone (group 3), with irradiation
Excerpt: Survival of five groups of nude mice bearing SK28 melanoma xenografts has been studied.

[7] = corrected cellular content FL2/fluorescence, Dbait 1.6 μg/mL

With “Co_siRNA_H2AX-Cy3: siRNA targeting H2AX with a cyanine 3 and a cholesterol at the 5′ and 3′ of the sense strand (sense CAACAAGAAGACGCGAAUCTT; antisense GAUUCGCGUCUUCUUGUUGTT; sense: 5' {Cy3}, 3' {Chol}, sugars by position and backbone not given here; antisense: chemistry not given here)” the “Cy3 fluorescence intensity @5 hrs. Mean” value ([1]; 79 nM) was 56, the “Cy3 fluorescence intensity @5 hrs. Median” value ([1]; 79 nM) was 53 and the “Cy3 fluorescence intensity @5 hrs. Mean” value ([1]; 79 nM + CQ 50 μM) was 63. For the same compound, the “Cy3 fluorescence intensity @5 hrs. Median” value ([1]; 79 nM + CQ 50 μM) was 60, the “Cy3 fluorescence intensity @5 hrs. Mean” value ([1]; 986 nM) was 710 and the “Cy3 fluorescence intensity @5 hrs. Median” value ([1]; 986 nM) was 661. For the same compound, the “Cy3 fluorescence intensity @5 hrs. Mean” value ([1]; 986 nM + CQ 50 μM) was 1214 and the “Cy3 fluorescence intensity @5 hrs. Median” value ([1]; 986 nM + CQ 50 μM) was 1144.
In the case of “Dbait: 32-bp hairpin DNA, SEQ ID NO: 4, hexaethyleneglycol linker; mimics double strand breaks (DNA GCTGTGCCCACAACCCAGCAAACAAGCCTAGA; DNA, backbone not given here; hairpin DNA with hexaethyleneglycol linker)”, the “cor MCC 5 hrs” value [2, 7] is reported as 0.43, the “cor MCC 24 hrs” value [2, 7] is reported as 0.56 and the “fluorescence distribution of treated cells” value ([2]; flow cytometry) is reported as “not different from untreated controls”. The “MCC 24 hrs” value ([2]; mean cellular content FL2 value, Dbait 1.6 μg/mL) was 3.45, the “MCC 5 hrs” value ([2]; mean cellular content FL2 value, Dbait 1.6 μg/mL, chloroquine +/− as in row) was 2.65 and the “24-hour phenotype / toxicity in zebrafish embryos” value [3] was “no effect on development”. The “fluorescence × 10e−6/μg/mL” value [4] was 6 10e−6/μg/mL, the “Mean % TGD” value ([5]; 6 × 60 μg (3 nmol)) was 114% and the Median survival time ([5]; 6 × 60 μg (3 nmol)) was 63. For the same compound, the Cured mice ([5]; 6 × 60 μg (3 nmol), no recurrence within 300 days) was 0, the Relative risk ([5]; 6 × 60 μg (3 nmol), versus mock) was 1.40 and the “Mean TGD” value ([5]; 6 × 60 μg (3 nmol)) was 3.
With `CCN(CC)CCCC(C)Nc1ccnc2cc(Cl)ccc12` (stereo not shown) [chloroquine, 7-chloro-4-(4-diethylamino-1-methylbutyl-amino)quinoline] the “MCC 5 hrs” value ([2]; mean cellular content FL2 value, no Dbait, chloroquine only) was 3.12, the “Mean % TGD” value ([5]; CQ without Dbait) was 142% and the Median survival time ([5]; CQ without Dbait) was 68. The “Mean TGD” value ([5]; CQ without Dbait) was 8 and the radiosensitization [6] was “neither coDbait (group 4) nor CQ (group 3) showed significant radiosensitization”.
